According to patent publication US11298314B2, “Injectable composition for localized fat reduction without pain, edema, and side effects, and method for preparing same” (AMI PHARM CO., LTD., priority 2017, dated 2022):
Entries after “also recorded” stand apart in the source; their conditions may differ.

Legend:
[1] = system: mouse paw; experiment: In vivo pain: moving distance and moving speed after paw injection; conditions: 100 ul into paw, 2 hours after administration, 5 minutes; listed as PPC 5.0%
Procedure: Specifically, 100 μl of each test material was injected into the floor of the paws of the rats, and edema was observed. […] The movement before and after injection of the test material was compared through distance and time. The movement before and after injection was measured using Noldus Video Traking system and compared with moving distance (FIG. 13A) and moving speed (FIG. 13B).
After the edema was confirmed to be the most at 2 hours after administration, the moving distance (cm) and the moving speed (cm/s) for 5 minutes were compared using Noldus Video Traking system.

[2] = system: sole of the rat paws; experiment: Measurement of skin lesion (erythema) on rat paw; type: in vivo, Sprague Dawley rats;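 note: grades − to ++++ mean no to extremely severe erythema versus before injection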
Method in brief: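 Male Sprague Dawley rats (6 weeks, 170–200 g) received 0.1 ml test composition or PBS injected into the paw. Paw thickness measured by caliper before, immediately after, and 1 or 2 h post-injection; sole lesions photographed and graded 0–4.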

[3] = PPC single composition 1.25% (w/v)
[4] = PPC single composition 2.50% (w/v)
[5] = PPC single composition 5.00% (w/v)
[6] = PPC single composition 7.50% (w/v)
[7] = PPC single composition 10.0% (w/v)
[8] = PPC single composition 12.5% (w/v)
[9] = PPC single composition 15.0% (w/v)

1,2-diacyl-sn-glycero-3-phosphocholine [PPC]
change of moving distance and moving speed [1]: not changed or slightly increased; also recorded: wasn't changed or was slightly increased | grade of skin lesion (erythema), 1 hour after administration [2, 3]: − | grade of skin lesion (erythema), 2 hours after administration [2, 3]: − | grade of skin lesion (erythema), Immediately after administration [2, 3]: − | grade of skin lesion (erythema), 1 hour after administration [2, 4]: − | grade of skin lesion (erythema), 2 hours after administration [2, 4]: − | grade of skin lesion (erythema), Immediately after administration [2, 4]: − | grade of skin lesion (erythema), 1 hour after administration [2, 5]: − | grade of skin lesion (erythema), 2 hours after administration [2, 5]: − | grade of skin lesion (erythema), Immediately after administration [2, 5]: − | grade of skin lesion (erythema), 1 hour after administration [2, 6]: − | grade of skin lesion (erythema), 2 hours after administration [2, 6]: − | grade of skin lesion (erythema), Immediately after administration [2, 6]: − | grade of skin lesion (erythema), 1 hour after administration [2, 7]: − | grade of skin lesion (erythema), 2 hours after administration [2, 7]: − | grade of skin lesion (erythema), Immediately after administration [2, 7]: − | grade of skin lesion (erythema), 1 hour after administration [2, 8]: − | grade of skin lesion (erythema), 2 hours after administration [2, 8]: − | grade of skin lesion (erythema), Immediately after administration [2, 8]: − | grade of skin lesion (erythema), 1 hour after administration [2, 9]: − | grade of skin lesion (erythema), 2 hours after administration [2, 9]: − | grade of skin lesion (erythema), Immediately after administration [2, 9]: −
